According to patent US11135320B2, “Radioligands for pretargeted pet imaging and methods of their therapeutic use” (priority 2015, dated 2021):
Where “and” joins values, the source holds several entries; their conditions need not be identical. Identical values can stand only once.

Columns and labels:
[1] = Stability of ^64Cu-labeled tetrazines in PBS (pH 7.4) at 37° C.; type: physicochemical; conditions: PBS pH 7.4, 37° C.
Description: Next, the aqueous and serum stabilities were determined via incubation at 37° C. (Tables 2-3). […] For example, after a 4 h incubation, 77.8±3.5% and 81.2±3.7% of ^64Cu-Tz-PEG7-NOTA and ^64Cu-Tz-SarAr, respectively, remained intact. Importantly, the release of ^64Cu^2+ from the chelators was not observed in any of the trials. Despite the rates of decomposition, the speed of the IEDDA reaction was faster than short blood half-lives of these small molecules; therefore, the radioligands remained functional in vivo.
^64Cu-Tz-PEG7-NOTA and ^64Cu-Tz-SarAr (1000 μCi) were incubated on an agitating thermomixer (300 rpm) at 37° C. in 500 μL of either PBS (pH 7.4) or human serum. At each prescribed time-point, 100 μL of the solution was removed and placed into a 1.7 mL microcentrifuge tube. For the PBS samples, the compound was injected directly onto the HPLC and analyzed using a gradient of 5:95 CH3CN:H2O (both with 0.1% TFA) to 95:5 CH3CN:H2O over 15 min. For the serum samples, 100 μL cold CH3CN was added to the serum, and the resultant mixture was vortexed and centrifuged at 10,000 rpm for 10 min. After this, the clear supernatant was removed, moved to a new 1.7 mL microcentrifuge tube, and centrifuged again at 10,000 rpm for 10 min. The clear supernatant from this second spin was then injected into the HPLC and analyzed using a gradient of 5:95 CH3CN:H2O (both with 0.1% TFA) to 95:5 CH3CN:H2O over 15 min. The residual protein from the centrifuge spins was checked for radioactivity, and only minimal residual activity remained (less than 1% of the starting ^64Cu for each ^64Cu-Tz-PEG7-NOTA and ^64Cu-Tz-SarAr). The fraction of intact ^64Cu-Tz-PEG7-NOTA or ^64Cu-Tz-SarAr was determined by integrating the peak corresponding to the compound (tR=9.7 and 8.7 minutes, respectively) and dividing by the integral over the whole HPLC run. Both the injection loop and column were monitored to detect the presence of residual activity. All experiments were performed in triplicate.

[2] = PET imaging with ^64Cu-labeled tetrazine radioligands in healthy mice; type: in vivo, athymic nude mice
Description: All PET imaging experiments were performed on an Inveon PET/CT scanner (Siemens Healthcare Global). Healthy female athymic nude mice (n=4 per radioligand) were administered ^64Cu-Tz-NOTA, ^64Cu-Tz-PEG7-NOTA, or ^64Cu-Tz-SarAr (300-350 μCi in 200 μL 0.9% sterile saline) via intravenous tail vein injection (t=0). Approximately 5 minutes prior to the PET images, mice were anesthetized by inhalation of 2% isoflurane (Baxter Healthcare, Deerfield, Ill.)/oxygen gas mixture and placed on the scanner bed; anesthesia was maintained using 1% isoflurane/gas mixture. Static scans were recorded at various time points after injection with a minimum of 30 million coincident events (10-30 min total scan time). An energy window of 350-700 keV and a coincidence timing window of 6 ns were used. Data were sorted into 2-dimensional histograms by Fourier re-binning, and the images were reconstructed using a two-dimensional ordered subset expectation maximization (2DOSEM) algorithm (16 subsets, 4 iterations) into a 128×128×159 (0.78×0.78×0.80 mm) matrix. The image data was normalized to correct for non-uniformity of response of the PET, dead-time count losses, positron branching ratio, and physical decay to the time of injection but no attenuation, scatter, or partial-volume averaging correction was applied. Activity concentrations (percentage of dose per gram of tissue [% ID/g]) and maximum intensity projections were determined by conversion of the counting rates from the reconstructed images. All of the resulting PET images were analyzed using ASIPro VM™ software.

[3] = mouse, in vivo; cited from earlier work
[4] = Partition coefficient (log D), 1-octanol / PBS; type: physicochemical; conditions: 1-octanol / PBS (pH 7.4)
Description: Once the precursors were made, the tetrazine constructs were then radiolabeled via incubation with [^64Cu]—CuCl2 for 10 minutes at room temperature in 200 mM NH4OAc, pH 5.0 and purified via reverse-phase C18 HPLC (tR=8.7 min for ^64Cu-Tz-SarAr and 9.7 min for ^64Cu-Tz-PEG7NOTA; FIGS. 6-9). In both cases, the identity of the radiolabeled product was confirmed via co-injection of unlabeled ^natCu-Tz-SarAr and ^natCu-Tz-PEG7-NOTA standards. Ultimately, ^64Cu-Tz-PEG7NOTA was prepared in greater than 99% radionuclidic purity, 78±6% decay-corrected isolated yield, and a specific activity of 323±37 mCi/μmol (n=6). Similarly, ^64Cu-Tz-SarAr was synthesized in greater than 99% radionuclidic purity, 79±7% decay-corrected isolated yield, and a specific activity of 310±36 mCi/μmol (n=6). The ^64Cu-Tz-NOTA radioligand was synthesized, radiolabeled, and purified as previously reported by Zeflis et al. J. Nucl. Med. 2013, 54, 1389-1396, which is hereby incorporated by reference in its entirety. In order to probe the influence of the structural changes on solubility, the partition coefficients of the various radioligands were determined using PBS (pH 7.4) and 1-octanol (Table 1). […] For example, the replacement of NOTA with SarAr rendered ^64Cu-Tz-SarAr (log D=−2.08±0.06) more hydrophobic than ^64Cu-Tz-NOTA (log D=−2.54±0.1).
^64Cu-Tz-PEG7-NOTA, ^64Cu-Tz-NOTA, or ^64Cu-Tz-SarAr (1 μCi) was added to a mixture of 3 mL PBS (pH 7.4) and 3 mL 1-octanol. The resulting mixture was then vortexed thoroughly for 10 minutes and subsequently centrifuged at 1,000 rpm for 10 min. 1 mL of each layer (PBS and 1-octanol) was then collected, and the amount of radioactivity in each sample was counted on a gamma counter calibrated for ^64Cu. The partition coefficient (log D) was calculated using the formula: Log D=log10[(countsoctanol)/(countsPBS] All experiments were performed in triplicate. Reaction of ^64Cu-Tz Radioligands with huA33-TCO

Row | Structure (SMILES) | % Intact (PBS) ([1]; 2 h) | excretion pathway (PET imaging) [2] | t1/2 of clearance through the intestinal tract [3] [h] | Log D [4] | % Intact (PBS) ([1]; 4 h) [%] | % Intact (PBS) ([1]; 8 h) [%]
1 | O=C([O-])CN1CCN(CC(=O)[O-])CC(Cc2ccc(NC(=O)CCCC(=O)NCc3ccc(-c4nncnn4)cc3)cc2)N(CC(=O)[O-])CC1.[64Cu+2] (centres unmarked) [^64Cu-Tz-NOTA] | 91.6 +/− 1.9% | eliminated somewhat sluggishly through the gastrointestinal pathway | ~4 | −2.54±0.1 and −2.54 +/− 0.10 | – | –
2 | O=C(O)CN1CCN(CC(=O)O)CC(Cc2ccc(NC(=S)NCCOCCOCCOCCOCCOCCOCCOCCNC(=O)CCCC(=O)NCc3ccc(-c4nncnn4)cc3)cc2)N(CC(=O)O)CC1.[64Cu] (centres unmarked) [^64Cu-Tz-PEG7-NOTA] | 87.0±1.3% and 87.0 +/− 1.3% | excretion through both the intestines and the kidneys | – | −2.44±0.08 and −2.44 +/− 0.08 | 83.2±4.6 | 76.2 ± 2.6
3 | NC12CNCCNCC(NCc3ccc(CNC(=O)CCCC(=O)NCc4ccc(-c5nncnn5)cc4)cc3)(CNCCNC1)CNCCNC2.[64Cu+2] [^64Cu-Tz-SarAr] | 94.7±0.6% and 94.7 +/− 0.6% | cleared quickly and cleanly through the urinary tract | – | −2.08 +/− 0.06 | 93.3±0.5 | 89.7 ± 2.3
